From PMC5075098, “Preclinical Evaluation of the Stability, Safety, and Efficacy of CD101, a Novel Echinocandin” (Antimicrobial Agents and Chemotherapy, 2016)
In brackets after ≈: the same amount, converted by molar mass. Like-named read-outs stand apart in the source and are kept apart here. Starred links: 1 amine or outer side, 2 acyl side, 3 side chain; linkers in the order of their positions; H or OH if unused. Positions of bridges follow the written chain, without caps; N, C: chain ends. Non-standard residues stand in square brackets, D forms with d. Residues, ends and D or L forms follow the SMILES beside them. *: point of attachment. pTerphenylCO(4''-OnC5H11) = CCCCCOc1ccc(-c2ccc(-c3ccc(C(=O)*)cc3)cc2)cc1; Orn(4R-OH,5R-OH) = O=C([C@H](C[C@@H](O)[C@@H](O)N[*:3])N[*:1])[*:2]; hTyr(3S-OH,4S-OH) = N[C@H](C(=O)O)[C@H](O)[C@@H](O)c1ccc(O)cc1; Pro(3S-OH,4S-Me) = C[C@H]1CN[C@H](C(=O)O)[C@H]1O; Hyp = O=C(O)[C@@H]1C[C@@H](O)CN1

Tests used:
[1] = system: A. fumigatus (ATCC 13073); assay: Neutropenic mouse model of A. fumigatus infection, survival; conditions: BID for 5 days; CD101 all dose groups and anidulafungin 1 and 5 mg/kg i.v. (P < 0.05); amphotericin B 0.3 mg/kg i.p.
Protocol: Animals were immunosuppressed by three i.p. injections of cyclophosphamide (the first injection at 6 mg/mouse 3 days before inoculation and the second and third injections at 2 mg/mouse on 1 and 4 days after inoculation). […] Dose administration started 1 and 7 h after infection. […] An increase of 50% or more in the survival rate of the active groups compared to the vehicle group indicated significant antifungal efficacy.

[2] = Reactive metabolite screening (glutathione trapping); type: in vitro ADME; conditions: PBS pH 7.4, excess GSH, 37°C, LC with high-resolution MS
Protocol: Samples were diluted to 10 μg/ml into 50:50 acetonitrile-water with 0.1 formic acid. Samples were analyzed by LC (Agilent 1100) with high-resolution MS (Waters quadrupole time of flight [Q-TOF] Premier mass spectrometer with electrospray interface) with concurrent low- and high-energy scans to obtain full-scan parent and product fragment ions. The analytical column was a Phenomenex Kinetex (2.6-μm C18, 100 by 3.0 mm). Waters MassLynx 4.1 software was used for data analysis.

[3] = system: A. fumigatus (ATCC 13073); assay: MEC/MIC, CLSI broth microdilution; conditions: 24 h at 35°C, rounded/compact hyphal morphology
Protocol: (§1) Enumeration of MIC and MEC assay inoculum viable counts was performed by plating aliquots of the starting assay inoculum on Sabouraud dextrose agar.

C. albicans R303 [4] = conditions: CLSI broth microdilution, read after 24 h at 35°C, prominent growth inhibition (∼50%)
Protocol: as §1

[5] = 2-week repeat-dose toxicity and hepatotoxicity screening; type: in vivo, Sprague-Dawley rats
Protocol: Dosing solutions were prepared in a vehicle comprising 5% mannitol containing 2.5% polysorbate 80 (Tween 80) in 0.3% acetic acid.
Animals were randomly assigned to dose groups and stratified by weight to achieve similar group mean body weights (males, 255 to 318 g; females, 192 to 215 g). Blood, urine, and liver samples (excised and preserved in 10% neutral buffered formalin) were obtained on day 15. Plasma liver enzyme levels were assessed. Liver tissues were processed to paraffin blocks and prepared for slides. Slides were stained with hematoxylin and eosin. Hematology data were collected using the Advia 120 hematology analyzer. Coagulation data were collected using the Diagnostica STA compact coagulation analyzer. Clinical chemistry data were collected using the AU400 chemistry analyzer. Qualitative and quantitative urinalysis was recorded using iRICELL 1500 UA analyzer. Clinical effects were assessed for determination of the maximum tolerated dose (MTD).
Statistical evaluations were performed on in-life and clinical pathology numerical data to determine statistical significance following a decision tree. First, the homogeneity of the data was determined by Bartlett's test. If the data were homogeneous, a one-way analysis of variance was performed to assess statistical significance. If statistically significant differences between the means were found, Dunnett's test was used to determine the degree of significance from the control means (P < 0.05, P < 0.01, and P < 0.001). If the data were nonhomogeneous, the Kruskal-Wallis nonparametric analysis was performed to assess statistical significance. If statistically significant differences between the means were found (P < 0.05, P < 0.01, and P < 0.001), the Mann-Whitney U test was used to determine the degree of significance from the control means (P < 0.05, P < 0.01, and P < 0.001).

[6] = after 44 h; cited from earlier work
Description: CD101, a novel echinocandin being developed as a high-exposure, once-weekly intravenous (i.v.) formulation for the treatment and prevention of systemic fungal infections, was designed to be chemically and metabolically stable to avoid hepatotoxicity while retaining the antifungal activity of an echinocandin.

[7] = Plasma protein binding, ultracentrifugation; type: in vitro ADME; conditions: human, ∼500,000 × g 2.5 h at 37°C, LC-MS/MS, SEM, read-out: % of protein bound (SEM) (converted)
Protocol: Ultracentrifugation ([15]) was used to compare human plasma protein binding of CD101 and anidulafungin. […] Following ultracentrifugation, the supernatant was transferred to a microtiter plate containing 50 μl plasma for matrix-matching purposes and quenched with 400 μl of cold acetonitrile (ACN) with 0.1% formic acid containing diclofenac as an internal standard. Quenched samples were centrifuged for 5 min at 10°C (e.g., 3,100 rpm [2,000 × g]) to sediment the precipitated proteins, and 50 μl supernatant was transferred to a microtiter plate containing 100 μl of water prior to analysis by LC-MS/MS. The percentage bound was the difference between 100% and the percentage free (the ratio of the concentration in supernatant to the total concentration).

C. albicans R303 [8] = assay: Neutropenic mouse model of C. albicans infection, kidney colony counts
Protocol: Immunosuppression was induced by two intraperitoneal (i.p.) injections of cyclophosphamide at 150 mg/kg 4 days before and 100 mg/kg 1 day before inoculation. […] The animals in the fluconazole group were sacrificed 48 h after infection.

C. albicans R303 [9] = assay: microbe, parasite or virus in culture; conditions: Candida albicans, R303, 24 h
Protocol: as §1

[10] = anidulafungin 40 mg/kg/day i.v. 14 days, rats, relative to controls, P ≤ 0.001
[11] = anidulafungin 40 mg/kg/day i.v. 14 days, rats, P ≤ 0.001
[12] = anidulafungin 40 mg/kg/day i.v. 14 days, rats, P ≤ 0.01

Q: With `C[C@@H]1[C@H](O)[C@@H](C)/C=C/C=C/C=C/C=C/C=C/C=C/C=C/[C@H](O[C@@H]2O[C@H](C)[C@@H](O)[C@H](N)[C@@H]2O)C[C@@H]2O[C@](O)(C[C@@H](O)C[C@@H](O)[C@H](O)CC[C@@H](O)C[C@@H](O)CC(=O)O[C@H]1C)C[C@H](O)[C@H]2C(=O)O` [amphotericin B, reference compound] as the molecule, how does the “10-day survival rate compared to the vehicle group” value [1] read?
A: The value was “significant increase”.

Q: What does the source list for `CCCCCOc1ccc(-c2ccc(-c3ccc(C(=O)N[C@H]4C[C@@H](O)[C@@H](O)NC(=O)[C@@H]5[C@@H](O)[C@@H](C)CN5C(=O)[C@H]([C@@H](C)O)NC(=O)[C@H]([C@H](O)[C@@H](O)c5ccc(O)cc5)NC(=O)[C@@H]5C[C@@H](O)CN5C(=O)[C@H]([C@@H](C)O)NC4=O)cc3)cc2)cc1` [anidulafungin] ({pTerphenylCO(4''-OnC5H11)}-[Orn(4R-OH,5R-OH)]T[Hyp][hTyr(3S-OH,4S-OH)]T[Pro(3S-OH,4S-Me)]; lactam 1-C)?
A: GSH adduct formation (reactive intermediate) [2]: did form a GSH adduct; 10-day survival rate compared to the vehicle group [1]: significant increase; MEC [3]: 0.004 µg/mL; MIC (C. albicans R303 [4]): 0.03 µg/mL (≈ 0.0263 µM); repeat-dose systemic or target organ toxicity ([5]; 14-day i.v. infusion, rats, CD101 20 mg/kg/day, anidulafungin 40 mg/kg/day (comparable exposure)): severe hemolytic anemia and liver toxicity; spleen finding upon necropsy ([5]; anidulafungin 40 mg/kg/day i.v. 14 days, rats): dark and enlarged spleens; increase in mean alkaline phosphatase (ALP) [5, 10]: up to 47%; increase in mean aspartate aminotransferase (AST) [5, 10]: up to 68%; increase in total bilirubin [5, 10]: up to 2 fold; increase in mean alanine transaminase (ALT) ([5]; anidulafungin 40 mg/kg/day i.v. 14 days, rats, relative to controls, P ≤ 0.05): up to 27%; decrease in the albumin/globulin ratio [5, 11]: up to 15%; increases in platelets [5, 11]: up to 44%; increases in reticulocyte (polychromasia), neutrophil, and eosinophil counts [5, 11]: up to 4 fold; decreases in activated partial thromboplastin time [5, 12]: up to 23%; decreases in red blood cells (RBC), hemoglobin, and hematocrit [5, 12]: up to 19%; increases in globulin [5, 12]: up to 19%; increases in serum cholesterol [5, 12]: up to 52%; reduced body weights and food consumption, decrease relative to controls ([5]; anidulafungin 40 mg/kg/day i.v. infusion 14 days, rats, P ≤ 0.05): up to 9%; microscopic changes in the liver ([5]; day 15, H&E, CD101 2, 6, or 20 mg/kg/day, anidulafungin 40 mg/kg/day (some of the females)): minimal to moderate single-cell necrosis affecting the hepatocytes; % remaining in human plasma [6]: 7%; fraction unbound ([7]; 1 μg/ml): 0.022; fraction unbound ([7]; 5 μg/ml): 0.014; log reduction in CFU per gram relative to vehicle (C. albicans R303 [8]; 0.6 mg/kg single i.v. dose, 24, 48, 72 h): up to 2.7 log; antimicrobial effect (≥99%, 2-log reduction in CFU per gram) (C. albicans R303 [8]; anidulafungin 0.6 mg/kg i.v., at 24 and 48 h): significant

Q: For `OC(Cn1cncn1)(Cn1cncn1)c1ccc(F)cc1F` [fluconazole, reference compound], which MIC (C. albicans R303 [9]) is on record?
A: The MIC was 2 µg/mL (≈ 6.53 µM).

Q: And the “reduction in CFU per gram of paired kidneys relative to vehicle” value (C. albicans R303 [8]; 20 mg/kg oral, 2 h after infection, 48 h)?
A: The value was 87%.

Q: And the “log reduction in CFU per gram relative to vehicle” value (C. albicans R303 [8]; 20 mg/kg oral, 48 h)?
A: The value was 1.1 log.
